The record followed here is article PMC12138102 (Acta Pharmaceutica Sinica. B, 2025).

The structures appear in SMILES notation.

One assay deals with eqBuChE (Equus caballus, UniProt P81908). Put plainly: BuChE inhibition, Ellman's assay. It is filed as biochemical, equine. To be noted: for IC50: IC50 ± SD eqBuChE; for SI: Selectivity Index, eeAChE and eqBuChE. (In Ellman's method for cholinesterases, released thiocholine reacts with DTNB.)
The next assay has as its target eeAChE (Electrophorus electricus, UniProt O42275). Put plainly: AChE inhibition, Ellman's assay. The assay is classed as biochemical.
The subject of a further assay is BuChE. Briefly: Reversibility of BuChE inhibition. The assay is classed as biochemical. To be noted: 0.1 × IC50, 120 min.
A further assay concerns the target huBuChE (Homo sapiens, UniProt P06276). Briefly: BuChE inhibition, Ellman's assay. It is filed as biochemical. As to conditions: for SI: Selectivity Index, huAChE and huBuChE.
The target in the next assay is huAChE (Homo sapiens, UniProt P22303). Briefly: AChE inhibition, Ellman's assay. The assay is classed as biochemical.
For assay [1], the system named is AlCl3-induced zebrafish AD model. Briefly: AlCl3-induced zebrafish AD model. It is filed as in vivo. To be noted: donepezil 3.0 μg/mL.
Assay [2] concerns APP/PS1 double-transgenic mice. Put plainly: APP/PS1 mice, Morris Water Maze and tissue analyses. The assay is classed as in vivo.
Another assay concerns scopolamine-induced mice. Briefly: Scopolamine-induced mice dysmnesia, step-down passive avoidance task. The assay is classed as in vivo, Kunming mice.
Where [3] appears, read: plasma, donepezil 2.0 mg/kg, 8e 2.6 mg/kg.

eqBuChE, sequence (P81908 whole entry): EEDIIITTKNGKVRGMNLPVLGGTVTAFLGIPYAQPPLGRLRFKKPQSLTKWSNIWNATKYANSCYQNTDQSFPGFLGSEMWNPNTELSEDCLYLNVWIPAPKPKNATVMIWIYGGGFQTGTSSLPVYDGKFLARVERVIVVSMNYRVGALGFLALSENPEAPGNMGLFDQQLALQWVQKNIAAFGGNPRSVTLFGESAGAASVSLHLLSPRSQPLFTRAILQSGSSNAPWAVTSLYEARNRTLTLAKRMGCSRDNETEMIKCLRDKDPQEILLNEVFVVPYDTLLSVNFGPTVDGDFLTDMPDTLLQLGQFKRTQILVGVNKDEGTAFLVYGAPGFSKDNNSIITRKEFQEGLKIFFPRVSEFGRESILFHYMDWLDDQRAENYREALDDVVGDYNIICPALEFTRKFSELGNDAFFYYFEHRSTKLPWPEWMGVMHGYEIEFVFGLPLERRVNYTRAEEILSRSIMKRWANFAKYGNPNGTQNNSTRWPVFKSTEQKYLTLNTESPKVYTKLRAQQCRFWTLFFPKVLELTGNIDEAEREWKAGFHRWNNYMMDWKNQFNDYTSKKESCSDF
huBuChE, sequence (P06276 29-602): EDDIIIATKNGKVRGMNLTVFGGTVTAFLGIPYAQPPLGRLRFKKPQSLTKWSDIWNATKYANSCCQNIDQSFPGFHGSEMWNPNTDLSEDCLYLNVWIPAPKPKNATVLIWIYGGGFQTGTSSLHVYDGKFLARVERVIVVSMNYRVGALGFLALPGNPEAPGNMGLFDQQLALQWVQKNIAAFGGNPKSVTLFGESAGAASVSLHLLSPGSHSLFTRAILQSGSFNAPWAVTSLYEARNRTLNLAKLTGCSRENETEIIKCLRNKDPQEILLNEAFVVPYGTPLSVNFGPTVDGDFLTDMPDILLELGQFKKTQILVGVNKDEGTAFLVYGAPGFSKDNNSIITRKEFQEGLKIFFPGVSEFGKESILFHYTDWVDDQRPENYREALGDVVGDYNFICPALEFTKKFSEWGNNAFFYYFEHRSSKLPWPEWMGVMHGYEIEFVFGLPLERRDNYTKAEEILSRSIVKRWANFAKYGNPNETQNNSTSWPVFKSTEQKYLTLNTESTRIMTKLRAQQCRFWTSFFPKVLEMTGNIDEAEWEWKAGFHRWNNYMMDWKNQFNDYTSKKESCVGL
huAChE, sequence (P22303 32-617 isoform P22303-2 limits assumed): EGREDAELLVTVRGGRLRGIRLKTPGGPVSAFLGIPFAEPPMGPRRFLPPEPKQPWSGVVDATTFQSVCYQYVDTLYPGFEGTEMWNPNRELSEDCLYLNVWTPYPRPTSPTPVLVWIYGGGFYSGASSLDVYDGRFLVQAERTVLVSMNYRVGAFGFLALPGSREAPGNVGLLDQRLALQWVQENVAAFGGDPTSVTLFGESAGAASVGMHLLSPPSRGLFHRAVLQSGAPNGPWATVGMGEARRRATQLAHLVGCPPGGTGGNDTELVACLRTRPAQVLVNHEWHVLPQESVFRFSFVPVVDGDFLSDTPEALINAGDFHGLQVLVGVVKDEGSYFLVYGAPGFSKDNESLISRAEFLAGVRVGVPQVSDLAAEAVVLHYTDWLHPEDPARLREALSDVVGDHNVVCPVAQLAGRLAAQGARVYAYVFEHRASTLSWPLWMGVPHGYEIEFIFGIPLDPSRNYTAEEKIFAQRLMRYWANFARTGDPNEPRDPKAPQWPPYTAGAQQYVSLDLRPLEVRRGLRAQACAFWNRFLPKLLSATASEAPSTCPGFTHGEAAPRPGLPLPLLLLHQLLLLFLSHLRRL
eeAChE, sequence (O42275 24-633): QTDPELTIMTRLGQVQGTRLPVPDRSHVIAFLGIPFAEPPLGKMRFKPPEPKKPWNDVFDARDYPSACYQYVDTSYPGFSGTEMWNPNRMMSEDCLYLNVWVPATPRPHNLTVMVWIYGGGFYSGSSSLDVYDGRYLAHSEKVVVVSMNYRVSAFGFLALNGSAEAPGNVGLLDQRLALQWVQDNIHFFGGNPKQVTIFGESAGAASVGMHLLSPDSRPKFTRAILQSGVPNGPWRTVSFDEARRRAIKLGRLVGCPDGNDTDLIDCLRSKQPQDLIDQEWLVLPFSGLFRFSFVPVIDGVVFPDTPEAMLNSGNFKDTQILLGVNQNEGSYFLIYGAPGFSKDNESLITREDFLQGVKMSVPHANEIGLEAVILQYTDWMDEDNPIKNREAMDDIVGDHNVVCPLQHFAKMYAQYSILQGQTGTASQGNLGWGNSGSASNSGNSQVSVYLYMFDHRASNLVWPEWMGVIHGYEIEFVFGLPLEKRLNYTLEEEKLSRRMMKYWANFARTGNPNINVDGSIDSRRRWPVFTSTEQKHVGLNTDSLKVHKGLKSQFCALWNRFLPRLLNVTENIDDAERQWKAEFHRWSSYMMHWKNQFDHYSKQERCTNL

A word on the IC50: it is the concentration that inhibits the measured activity by half. On eqBuChE, `COc1cc(CCC(=O)N2CCC(Cc3ccccc3)CC2)ccc1OCCCCN1CCN(Cc2ccccc2)CC1` [8b] yielded a half-maximal inhibitory concentration (IC50) of 3.3 ± 0.13 µM and an SI of 1.8. In addition, it took 5.8 ± 0.35 µM to reach half-maximal inhibition at eeAChE (IC50).

Take `CCN(CCCCOc1c(OC)cc(C(=O)N2CCN(c3ccc(F)cc3)CC2)cc1OC)Cc1ccccc1` [7j]: on eqBuChE, the IC50 was found to be 6.3 ± 0.32 µM and the SI is given as 1.1. At eeAChE, this molecule came in with a concentration for half-maximal inhibition (IC50) of 6.9 ± 0.04 µM.

`CCN(CCCCCCCCCCOc1ccc(CCC(=O)N2CCC(Cc3ccccc3)CC2)cc1OC)Cc1ccccc1` [10f]: at eqBuChE, the 50% inhibitory concentration (IC50) came to 0.59 ± 0.08 µM and the SI came out at 8.0. The molecule also yielded an IC50 on eeAChE of 4.7 ± 0.28 µM.

Take `CCN(C)C(=O)Oc1cccc([C@H](C)N(C)C)c1` [Rivastigmine]: the “recovery of BuChE activity / reversibility” value with BuChE is recorded as “remained relatively unchanged”.

On eqBuChE, `COc1cc(C(=O)N2CCC(Cc3ccccc3)CC2)ccc1OCCCCN1CC(C)CC(C)C1` (stereo not shown) [7g] displayed a half-maximal inhibitory concentration (IC50) of 3.7 ± 0.24 µM and an SI of 0.6. At eeAChE, the concentration for half-maximal inhibition (IC50) stood at 2.3 ± 0.12 µM.

On to `CCN(CC)CCCCOc1ccc(C(=O)N2CCC(Cc3ccccc3)CC2)cc1OC` [7f], for which the IC50 at eqBuChE stood at 6.4 ± 0.24 µM; at eeAChE, 8.6 ± 0.32 µM. At eqBuChE, this molecule came in with an SI of 1.3.

Consider `COc1cc(C(=O)N2CCC(Cc3ccccc3)CC2)ccc1OCCCCN1CCc2ccccc2C1` [7d], for which, at eqBuChE, the half-inhibitory concentration (IC50) turned out to be 0.85 ± 0.02 µM and the SI is listed as 3.6. Besides, on eeAChE, it took 3.1 ± 0.15 µM to reach half-maximal inhibition (IC50).

With `COc1cc(CCC(=O)N2CCC(Cc3ccccc3)CC2)ccc1OC(=O)CCCCN1CCC(CCCc2ccccc2)CC1` [9c], the IC50 on eqBuChE came out at 0.73 ± 0.23 µM; against eeAChE, 8.1 ± 0.43 µM. The SI on eqBuChE came to 11.

For `COc1cc(CCC(=O)N2CCC(Cc3ccccc3)CC2)ccc1OCCCCN1CCC(CCCc2ccccc2)CC1` [8c], the IC50 came to 0.082 ± 0.007 µM at huBuChE, 6.7 ± 0.16 µM at huAChE, 0.063 ± 0.005 µM on eqBuChE and 4.2 ± 0.26 µM on eeAChE. For the same molecule, the SI on huBuChE is 82; on eqBuChE, 67.

With `CCN(CCCCCCCCCOc1ccc(CCC(=O)N2CCC(Cc3ccccc3)CC2)cc1OC)Cc1ccccc1` [10e], the IC50 was found to be 0.28 ± 0.02 µM against eqBuChE and 8.4 ± 0.53 µM on eeAChE. At eqBuChE, this molecule gave an SI of 30.

As for `CCN(CCCOc1ccc(CCC(=O)N2CCC(Cc3ccccc3)CC2)cc1OC)Cc1ccccc1` [10b], the half-inhibitory concentration (IC50) on huBuChE came out at 0.091 ± 0.008 µM; against huAChE, 5.9 ± 0.26 µM; against eqBuChE, 0.068 ± 0.005 µM; against eeAChE, 8.7 ± 0.01 µM. Besides, the figures for the SI at huBuChE and on eqBuChE were 65 and 128, respectively.

With `COc1cc(CCC(=O)N2CCC(Cc3ccccc3)CC2)ccc1OCCCCN1CCC(Cc2ccccc2)CC1` [8a], the IC50 is 0.16 ± 0.43 µM on huBuChE, 5.9 ± 0.26 µM against huAChE, 0.093 ± 0.005 µM on eqBuChE and 1.7 ± 0.01 µM on eeAChE. Moreover, the SI on huBuChE was found to be 37; on eqBuChE it was 18.

As to `COc1cc(CCC(=O)N2CCC(Cc3ccccc3)CC2)ccc1OCCCCN1CCc2ccccc2C1` [8d], the IC50 is 0.097 µM at huBuChE, 8.6 ± 0.33 µM at huAChE, 0.087 ± 0.002 µM against eqBuChE and 6.2 ± 0.12 µM against eeAChE. Also, the SI is listed as 89 at huBuChE and 71 at eqBuChE.

In the case of `COc1cc(C(=O)N2CCC(Cc3ccccc3)CC2)ccc1OCCCCN1CCC(Cc2ccccc2)CC1` [7a], the concentration for half-maximal inhibition (IC50) was 0.66 ± 0.03 µM against eqBuChE and 5.9 ± 0.36 µM at eeAChE. Moreover, on eqBuChE, the SI was found to be 8.9.

`COc1cc(CCC(=O)N2CCC(Cc3ccccc3)CC2)ccc1OCCCCN1CCC(c2ccccc2)CC1` [8h]: the IC50 was found to be 0.19 ± 0.19 µM at huBuChE, 6.9 ± 0.14 µM against huAChE, 0.13 ± 0.08 µM at eqBuChE and 4.7 ± 0.28 µM at eeAChE. The SI on huBuChE and at eqBuChE was 36 in each case.

On to `CCN(CCCCOc1c(OC)cc(C(=O)NC2CCN(Cc3ccccc3)CC2)cc1OC)Cc1ccccc1` [7i], for which the half-maximal inhibitory concentration (IC50) on eqBuChE was 2.6 ± 0.12 µM; against eeAChE, 5.7 ± 0.03 µM. For the same molecule, the SI on eqBuChE is recorded as 2.2.

On to `COc1cc(CCC(=O)N2CCC(Cc3ccccc3)CC2)ccc1OCCCCN1CCC(c2noc3ccccc23)CC1` [8k], for which the IC50 came to 0.25 ± 0.02 µM at eqBuChE and 5.5 ± 0.23 µM against eeAChE. The SI on eqBuChE turned out to be 22.

At eqBuChE, `COc1cc(CCC(=O)N2CCC(Cc3ccccc3)CC2)ccc1OCCCCN1CCC(C(=O)c2ccc(F)cc2)CC1` [8j] registered an IC50 of 0.31 ± 0.12 µM and an SI of 16. 4.9 ± 0.18 µM corresponded to half-maximal inhibition against eeAChE (IC50).

On eqBuChE, `CCN(CCCCCCOc1ccc(CCC(=O)N2CCC(Cc3ccccc3)CC2)cc1OC)Cc1ccccc1` [10d] came in with an IC50 of 0.12 ± 0.003 µM and an SI of 38. This molecule also yielded an IC50 against eeAChE of 4.6 ± 0.03 µM.

Turning to `CCN(CCCCOc1ccc(C(=O)N2CCC(Cc3ccccc3)CC2)cc1OC)Cc1ccccc1` [7e], the IC50 at huBuChE is 0.87 ± 0.23 µM; against huAChE it was 3.9 ± 0.44 µM; against eqBuChE, 0.47 ± 0.05 µM; at eeAChE, 2.8 ± 0.13 µM. For the same molecule, the results for the SI on huBuChE and at eqBuChE were 4.5 and 6.0, respectively.

For `COc1cc2c(cc1OC)C(=O)C(CC1CCN(Cc3ccccc3)CC1)C2` (stereo not shown) [Donepezil], the “number of apoptotic cells” value in assay [1] (HE staining, 8e 0.1, 0.25, and 0.5 μg/mL) was “significantly reduced”. The swimming distance/swimming speed entry in assay [1] (8e 0.1 and 0.25 μg/mL) is “significantly increased”. In addition, the reaction capacity entry in assay [1] (8e 0.1 and 0.25 μg/mL, transition from dark to light) is reported as “significantly enhanced”. In addition, in assay [2] (ELISA, cerebral cortex), the ACh levels entry was “remarkable increase”, the “Aβ1–42 levels” value was “significantly reduced”, the IL-1β levels result was “significantly reduced” and the IL-6 levels result is listed as “significantly reduced”. Moreover, the TNF-α levels result in assay [2] (ELISA, cerebral cortex) is “significantly reduced”. For the same molecule, the “neuronal abnormalities within cerebral cortex and hippocampus” value in assay [2] (HE staining, donepezil 2 mg/kg, 8e 2.6 mg/kg) is reported as “marked decrease”. Also, in assay [2] (MWM, vs model group), the escape latency result is on record as “significantly decreased”. In addition, in assay [2] (immunofluorescence staining, cerebral cortex, donepezil 2.0 mg/kg, 8e 2.6 mg/kg), the “Aβ1–42 levels” value is given as “significant reduction”. For the same molecule, the TG levels entry in assay [2] (plasma) is on record as “significant decrease”. Further, in assay [2] (setting [3]), the LDL-c levels result is recorded as “significantly reduced” and the TC levels result is on record as “significantly reduced”. In the assay with scopolamine-induced mice (5.0 mg/kg), this molecule showed a latency time of 163.87 s and a number of errors of 0.1. Moreover, in the assay with scopolamine-induced mice (TUNEL staining, donepezil 5.0 mg/kg, 8e 6.5 mg/kg), the “neuronal apoptosis in the hippocampus” value is on record as “significantly reduced”. The “levels of IL-1β, IL-6, and TNF-α in the cerebral cortex” value with scopolamine-induced mice (immunohistochemistry, donepezil 5.0 mg/kg, 8e 6.5 mg/kg) was “significant reduction”.

For the molecule `COc1cc(C(=O)N2CCC(Cc3ccccc3)CC2)ccc1OCCCCN1CCN(Cc2ccccc2)CC1` [7b], at eqBuChE, half-maximal inhibition (IC50) was put at 3.1 ± 0.12 µM and the SI is on record as 2.5. Besides, the 50% inhibitory concentration (IC50) against eeAChE came out at 7.9 ± 0.25 µM.

With `COc1cc(C(=O)N2CCC(Cc3ccccc3)CC2)ccc1OCCCCN1CCC(CCCc2ccccc2)CC1` [7c], the figures for the 50% inhibitory concentration (IC50) on eqBuChE and on eeAChE were 1.1 ± 0.06 µM and 3.4 ± 0.13 µM, respectively. The same molecule yielded an SI at eqBuChE of 3.1.

At eqBuChE, `CCN(CCOc1ccc(CCC(=O)N2CCC(Cc3ccccc3)CC2)cc1OC)Cc1ccccc1` [10a] returned a concentration for half-maximal inhibition (IC50) of 0.22 ± 0.03 µM and an SI of 16. At eeAChE, this molecule registered an IC50 of 3.6 ± 0.02 µM.

At eqBuChE, `CCN(CC)CCCCOc1ccc(CCC(=O)N2CCC(Cc3ccccc3)CC2)cc1OC` [8f] had an IC50 of 0.28 ± 0.02 µM and an SI of 30. The same molecule gave a half-inhibitory concentration (IC50) on eeAChE of 8.4 ± 0.53 µM.

`CCN(CCCCCOc1ccc(CCC(=O)N2CCC(Cc3ccccc3)CC2)cc1OC)Cc1ccccc1` [10c]: the IC50 at huBuChE is 0.11 µM; on huAChE, 8.6 ± 0.33 µM; on eqBuChE, 0.077 ± 0.002 µM; at eeAChE it was 6.2 ± 0.12 µM. In addition, the SI at huBuChE was 78; at eqBuChE, 81.

As to `COc1cc(CCC(=O)N2CCC(Cc3ccccc3)CC2)ccc1OC(=O)CCCCN1CCC(Cc2ccccc2)CC1` [9a], on eqBuChE, inhibition was half-maximal at 0.82 ± 0.03 µM (IC50) and the SI is on record as 8.7. Besides, the IC50 on eeAChE was 7.1 ± 0.15 µM.

As for `COc1cc(CCC(=O)N2CCC(Cc3ccccc3)CC2)ccc1OC(=O)CCCCN1CCN(Cc2ccccc2)CC1` [9b], on eqBuChE, inhibition was half-maximal at 1.7 ± 0.06 µM (IC50) and the SI is listed as 1.1. The molecule further gave an IC50 at eeAChE of 1.9 ± 0.11 µM.

On eqBuChE, `COc1cc(CCC(=O)N2CCC(Cc3ccccc3)CC2)ccc1OCCCCN1CC(C)CC(C)C1` (stereo not shown) [8g] gave an IC50 of 0.75 ± 0.02 µM and an SI of 8.7. The same molecule had a 50% inhibitory concentration (IC50) against eeAChE of 6.5 ± 0.33 µM.
